Measurements from patent publication US20240108725A1, “METHOD FOR TREATING CANCER AND SYSTEM FOR SAME” (OTSUKA MEDICAL DEVICES CO., LTD, priority 2020, published 2024).

Tested on: TL-Om1 cells
Experiment: Rate of dead cells after 5-ALA PDT in erythrocyte solution, TL-Om1 cells, Example 3
Format: cell-based, human
Protocol: C6 cells or human leukemia cell line TL-Oml cells were cultured in 2.5% FBS/F-12K medium (C6 cells) or 10% FBS/RPMI1640 (TL-Oml cells) supplemented with 5-ALA to a final concentration of 0.125 to 0.5 mM in a 5% CO2 incubator at 37° C. for 4 hours. After the culture, the cells were removed with a 0.25% trypsin-EDTA solution, and the collected cells were adjusted to 2×10^7 cells/mL with an erythrocyte solution (a solution in which erythrocytes and PBS were mixed at a ratio of 45:55). The cell suspension thus prepared was injected into a Tygon tube (inner diameter: 0.79 mm), wrapped around a light irradiator, and irradiated with light having a wavelength of 630 nm so that the irradiation energy density was 0.5 to 500 J/cm^2. After the irradiation, an ammonium chloride solution was added to the cell suspension to hemolyze the erythrocytes. Cells before the PDT treatment, after the PDT treatment, and after 24-hour culture were stained with the FITC Annexin V Apoptosis Detection Kit I and the rate of dead cells was analyzed with a flow cytometer.

[1] = 5-ALA 0.125 mM, 10 J/cm^2, 24 hours after irradiation
[2] = 5-ALA 0.125 mM, 50 J/cm^2, 24 hours after irradiation
[3] = 5-ALA 0.125 mM, 100 J/cm^2, 24 hours after irradiation
[4] = 5-ALA 0.125 mM, 200 J/cm^2, 24 hours after irradiation
[5] = 5-ALA 0.125 mM, 300 J/cm^2, 24 hours after irradiation
[6] = 5-ALA 0.125 mM, 400 J/cm^2, 24 hours after irradiation
[7] = 5-ALA 0.125 mM, 500 J/cm^2, 24 hours after irradiation
[8] = 5-ALA 0.25 mM, 1 J/cm^2, 24 hours after irradiation
[9] = 5-ALA 0.25 mM, 1 J/cm^2, immediately after irradiation
[10] = 5-ALA 0.25 mM, 2.5 J/cm^2, 24 hours after irradiation
[11] = 5-ALA 0.25 mM, 2.5 J/cm^2, immediately after irradiation
[12] = 5-ALA 0.25 mM, 5 J/cm^2, 24 hours after irradiation
[13] = 5-ALA 0.25 mM, 5 J/cm^2, immediately after irradiation
[14] = 5-ALA 0.25 mM, 10 J/cm^2, 24 hours after irradiation
[15] = 5-ALA 0.25 mM, 10 J/cm^2, immediately after irradiation
[16] = 5-ALA 0.25 mM, 50 J/cm^2, 24 hours after irradiation
[17] = 5-ALA 0.25 mM, 50 J/cm^2, immediately after irradiation
[18] = 5-ALA 0.25 mM, 100 J/cm^2, 24 hours after irradiation
[19] = 5-ALA 0.25 mM, 100 J/cm^2, immediately after irradiation
[20] = 5-ALA 0.25 mM, 200 J/cm^2, 24 hours after irradiation
[21] = 5-ALA 0.25 mM, 200 J/cm^2, immediately after irradiation
[22] = 5-ALA 0.25 mM, 300 J/cm^2, 24 hours after irradiation
[23] = 5-ALA 0.25 mM, 300 J/cm^2, immediately after irradiation
[24] = 5-ALA 0.25 mM, 400 J/cm^2, 24 hours after irradiation
[25] = 5-ALA 0.25 mM, 400 J/cm^2, immediately after irradiation
[26] = 5-ALA 0.25 mM, 500 J/cm^2, 24 hours after irradiation
[27] = 5-ALA 0.25 mM, 500 J/cm^2, immediately after irradiation
[28] = 5-ALA 0.5 mM, 1 J/cm^2, immediately after irradiation
[29] = 5-ALA 0.5 mM, 2.5 J/cm^2, immediately after irradiation
[30] = 5-ALA 0.5 mM, 5 J/cm^2, immediately after irradiation
[31] = 5-ALA 0.5 mM, 10 J/cm^2, immediately after irradiation
[32] = 5-ALA 0.5 mM, 50 J/cm^2, immediately after irradiation
[33] = 5-ALA 0.5 mM, 100 J/cm^2, immediately after irradiation
[34] = 5-ALA 0.5 mM, 200 J/cm^2, immediately after irradiation
[35] = 5-ALA 0.5 mM, 300 J/cm^2, immediately after irradiation
[36] = 5-ALA 0.5 mM, 400 J/cm^2, immediately after irradiation
[37] = 5-ALA 0.5 mM, 500 J/cm^2, immediately after irradiation

NCC(=O)CCC(=O)O [5-ALA, 5-aminolevulinic acid]
Annexin V+/PI+ (%) [1]: 6% | Annexin V+/PI− (%) [1]: 4% | Annexin V+/PI+ (%) [2]: 6% | Annexin V+/PI− (%) [2]: 4% | Annexin V+/PI+ (%) [3]: 6% | Annexin V+/PI− (%) [3]: 5% | Annexin V+/PI+ (%) [4]: 7% | Annexin V+/PI− (%) [4]: 4% | Annexin V+/PI+ (%) [5]: 9% | Annexin V+/PI− (%) [5]: 4% | Annexin V+/PI+ (%) [6]: 12% | Annexin V+/PI− (%) [6]: 8% | Annexin V+/PI+ (%) [7]: 33% | Annexin V+/PI− (%) [7]: 14% | Annexin V+/PI+ (%) [8]: 4% | Annexin V+/PI− (%) [8]: 6% | Annexin V−/PI− (%) [8]: 90% | Annexin V+/PI+ (%) [9]: 8% | Annexin V+/PI− (%) [9]: 4% | Annexin V−/PI− (%) [9]: 88% | Annexin V+/PI+ (%) [10]: 4% | Annexin V+/PI− (%) [10]: 7% | Annexin V−/PI− (%) [10]: 89% | Annexin V+/PI+ (%) [11]: 6% | Annexin V+/PI− (%) [11]: 4% | Annexin V−/PI− (%) [11]: 89% | Annexin V+/PI+ (%) [12]: 4% | Annexin V+/PI− (%) [12]: 8% | Annexin V−/PI− (%) [12]: 88% | Annexin V+/PI+ (%) [13]: 7% | Annexin V+/PI− (%) [13]: 4% | Annexin V−/PI− (%) [13]: 88% | Annexin V+/PI+ (%) [14]: 6% | Annexin V+/PI− (%) [14]: 8% | Annexin V−/PI− (%) [14]: 86% | Annexin V+/PI+ (%) [15]: 6% | Annexin V+/PI− (%) [15]: 4% | Annexin V−/PI− (%) [15]: 90% | Annexin V+/PI+ (%) [16]: 9% | Annexin V+/PI− (%) [16]: 9% | Annexin V−/PI− (%) [16]: 83% | Annexin V+/PI+ (%) [17]: 8% | Annexin V+/PI− (%) [17]: 4% | Annexin V−/PI− (%) [17]: 87% | Annexin V+/PI+ (%) [18]: 10% | Annexin V+/PI− (%) [18]: 8% | Annexin V−/PI− (%) [18]: 83% | Annexin V+/PI+ (%) [19]: 10% | Annexin V+/PI− (%) [19]: 4% | Annexin V−/PI− (%) [19]: 85% | Annexin V+/PI+ (%) [20]: 11% | Annexin V+/PI− (%) [20]: 10% | Annexin V−/PI− (%) [20]: 79% | Annexin V+/PI+ (%) [21]: 12% | Annexin V+/PI− (%) [21]: 5% | Annexin V−/PI− (%) [21]: 82% | Annexin V+/PI+ (%) [22]: 14% | Annexin V+/PI− (%) [22]: 11% | Annexin V−/PI− (%) [22]: 75% | Annexin V+/PI+ (%) [23]: 13% | Annexin V+/PI− (%) [23]: 4% | Annexin V−/PI− (%) [23]: 82% | Annexin V+/PI+ (%) [24]: 34% | Annexin V+/PI− (%) [24]: 16% | Annexin V−/PI− (%) [24]: 50% | Annexin V+/PI+ (%) [25]: 18% | Annexin V+/PI− (%) [25]: 4% | Annexin V−/PI− (%) [25]: 77% | Annexin V+/PI+ (%) [26]: 72% | Annexin V+/PI− (%) [26]: 21% | Annexin V−/PI− (%) [26]: 7% | Annexin V+/PI+ (%) [27]: 33% | Annexin V+/PI− (%) [27]: 3% | Annexin V−/PI− (%) [27]: 63% | Annexin V+/PI+ (%) [28]: 7% | Annexin V+/PI− (%) [28]: 3% | Annexin V−/PI− (%) [28]: 89% | Annexin V+/PI+ (%) [29]: 5% | Annexin V+/PI− (%) [29]: 2% | Annexin V−/PI− (%) [29]: 92% | Annexin V+/PI+ (%) [30]: 7% | Annexin V+/PI− (%) [30]: 3% | Annexin V−/PI− (%) [30]: 90% | Annexin V+/PI− (%) [31]: 3% | Annexin V−/PI− (%) [31]: 89% | Annexin V+/PI− (%) [32]: 3% | Annexin V−/PI− (%) [32]: 83% | Annexin V+/PI− (%) [33]: 3% | Annexin V−/PI− (%) [33]: 80% | Annexin V+/PI− (%) [34]: 3% | Annexin V−/PI− (%) [34]: 78% | Annexin V+/PI+ (%) [35]: 23% | Annexin V+/PI− (%) [35]: 3% | Annexin V−/PI− (%) [35]: 72% | Annexin V+/PI+ (%) [36]: 32% | Annexin V+/PI− (%) [36]: 3% | Annexin V−/PI− (%) [36]: 61% | Annexin V+/PI+ (%) [37]: 62% | Annexin V+/PI− (%) [37]: 2% | Annexin V−/PI− (%) [37]: 30%
